Assay [1] relates to Irritable Bowel Syndrome / chronic diarrhea. Description: Earlier conventional medication of the trial patients (patient history). The note with it: for reduction of symptoms: Patient 3, IBS, tried over 40 years before the trial. The class given is in vivo, human. Here is the method: They were assessed by a gastroenterologist in 1989 and placed on long-term use of Imodium. This was given to reduce the number of bowel motions.
They also tried Colestid and was told to remain on this indefinitely to reduce their diarrhea.
Patient 3 was diagnosed with Irritable Bowel Syndrome, and over the next 40 years, tried many different medicines including Colestid sachets, Imodium, Codeine, cholestyramine, and Dicap. […] During this time, patient 3 has been admitted four times to a hospital for acute exacerbations of diarrhea.
Patient 4 has been diagnosed with irritable Bowel Syndrome for over a year and suffers from an extremely swollen abdomen with constant flatulence and diarrhea. Patient 4 has taken Mucilax, bran and has made major dietary alterations, all with no effect. Further effects of Irritable Bowel Syndrome to patient 4 included exhaustion, with the patient sleeping between 12-15 hours daily.

For the next assay, the system named is IBS and/or IBD. Description: Trials with a variety of patients using dosage forms of cetyl myristate alone. The class given is in vivo, human.
For assay [2] the following is noted: laboratory experiments; website www.gcinutrients.com; cited from earlier work.

With `COc1ccc2c3c1O[C@H]1[C@@H](O)C=C[C@H]4[C@@H](C2)N(C)CC[C@@]341` [Codeine], the reduction of symptoms result in assay [1] is reported as “none of the medicines listed were able to reduce the symptoms”.

As for `CN(C)C(=O)C(CCN1CCC(O)(c2ccc(Cl)cc2)CC1)(c1ccccc1)c1ccccc1` [Imodium], the “reduction of the number of bowel motions” value in assay [1] (Patient 1, long-term use from 1989, before the trial) is on record as “some benefits from this but they did not improve sufficiently”. Also, the reduction of symptoms result in assay [1] is “none of the medicines listed were able to reduce the symptoms”.

As for `CCCCCCCCCCCCCCCCOC(=O)CCCCCCCCCCCCC` [cetyl myristate], the “relief from the symptoms of IBS and/or IBD” value in the assay on IBS and/or IBD is reported as “favorable responses”. In addition, the anti-arthritic activity result in assay [2] is listed as “negligible”.

On to cholestyramine, for which, in assay [1], the reduction of symptoms result is recorded as “none of the medicines listed were able to reduce the symptoms”.

The record behind these values is patent publication US6696491B2, “Treating irritable bowel syndrome or disease” (Meracol Corporation Limited, priority 2000, dated 2004).
